Data set [1] concerns taxol-resistant MCF7 cells (MCF7/Tax). In words: Growth inhibition of taxol-resistant cells. It is filed as cell-based, human.
Data set [2] concerns MCF-7. The data set can be described thus: Antiproliferative activity, SRB assay. It counts as cell-based, human. For orientation: The SRB assay estimates cell density from bound dye.
In data set [3] the test system is U937. The data set can be described thus: Antiproliferative activity, CCK-8 assay. It is filed as cell-based. The settings on record: Homo sapiens, U-937. Here is the method:
(§1) The synthesized compounds were first evaluated for their cytotoxic effect on MCF-7 (human breast adenocarcinoma), U937 (histiocytic lymphoma cancer), HepG2 (human liver cancer) cells, and MGC-803 (human gastric cancer) using the SRB and CCK-8 assay. As reference compounds CA-4 and colchicine were included.
(§2) The primary tumor cells were purchased from a professional biomedical company. First, the primary tumor cells were incubated in a cell culture incubator at 37°C and 5% CO2. After the cell fusion reached 85%–95%, subculture was performed, and the tumor cells obtained at this time were used for subsequent related experiments. The CCK-8 method was used to inhibit the proliferation of U937 tumor cells, and the SRB method was used to inhibit the proliferation of MCF7 and HepG2 tumor cells.
(§3) The cells in the logarithmic growth phase were seeded in a 96-well plate at 8,000/well, and the drug-containing medium and cell suspension were added to the well. Three wells were added with the blank medium as the blank group. The 96-well plate was incubated for 72 h in a 37°C, 5% CO2 incubator. The 10 μl of CCK-8 dye solution was added to each well, and the incubation continued for 3–4 h.

Data set [4] relates to HepG2. In words: Antiproliferative activity, SRB assay. It counts as cell-based, human. Particulars: Homo sapiens, HepG2. The procedure: as §1, §2
(§4) Cells were distributed into 96-well plates with a density of 3 × 10^3–4 × 10^3 cells per well and incubated for 24 h in a 5% CO2 incubator at 37°C, followed by treatment with study compounds at different concentrations at 37°C for 72 h. One hundred microliters of 10% (w/v) trichloroacetic acid was added to each well, fixed at 4°C for 30 min, and dried at 65°C. Then 100 μl of 0.4% SRB was added to each well and stained on a shaker for 20 min at room temperature. The excess dye solution was washed with newly prepared 1% glacial acetic acid and dried at 65°C. One hundred fifty microliters of 10 mM unbuffered Trisbase was added to each well of the plate and shaken for 5 min to dissolve the dye. The microplate reader measured the optical density (OD) at a wavelength of 560 nm.

For data set [5], the system named is normal liver LO2 cells. The data set can be described thus: Growth inhibition of normal cells. It is filed as cell-based, human.
In data set [6] the test system is MCF-7, U937, HepG2 and MGC-803 cells. The data set can be described thus: Antiproliferative activity, cancer cell panel (text summaries). It is filed as cell-based, human. The settings on record: Homo sapiens; U937, MCF-7, HepG2, MGC-803; read-out: IC50 against four cancer cell lines. The procedure:
as §1, §2, §4, §3

Data set [7] has as its system MGC-803. In words: Antiproliferative activity (SRB and CCK-8 assay). It counts as cell-based. Particulars: Homo sapiens.
Text: as §1

[8] abbreviates: Homo sapiens, MCF7, three single determinations, read-out: MCF-7/Taxol (raw data of table 3, IC50).
The mark [9] stands for this setting: Homo sapiens, MCF7, triplicate, read-out: IC50 ± SD, MCF7/Tax.
[10] abbreviates: Homo sapiens, MCF7, 72 h, 72 h, triplicate, mean ± SD, read-out: IC50 ± SD, MCF-7.
Where [11] appears, read: Homo sapiens, MCF7, Table 3, triplicate, read-out: IC50 ± SD, MCF7.
[12] abbreviates: Homo sapiens, MCF7, supplement raw data, read-out: IC50/MCF.
The mark [13] stands for this setting: Homo sapiens, MCF7, three single determinations, read-out: MCF-7 (raw data of table 3, IC50).
The mark [14] stands for this setting: 72 h, triplicate, mean ± SD, read-out: IC50 ± SD, U937.
The mark [15] stands for this setting: supplement raw data, read-out: IC50/U937.
Where [16] appears, read: 72 h, triplicate, mean ± SD, read-out: IC50 ± SD, HepG2.
[17] abbreviates: Homo sapiens, L02, three single determinations, read-out: L02 (raw data of table 3, IC50).
[18] abbreviates: Homo sapiens, L02, triplicate, read-out: IC50 ± SD, LO2.
The mark [19] stands for this setting: triplicate, mean ± SD, read-out: IC50 ± SD, MGC-803.

Where “and” joins values, the source holds several entries; their conditions need not be identical. Equal entries are not always repeated. Where two headings read alike, the source gives them in different places. Where only a bound is given, the exact number is not on record here.
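Wherever IC50 ± SD, MCF-7 is given: proliferation of MCF7 cells quantified by sulforhodamine B staining, with optical density read at 560 nm.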
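Wherever IC50/MCF is given: proliferation of MCF7 cells quantified by sulforhodamine B staining, with optical density read at 560 nm.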
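Wherever MCF-7 (raw data of table 3, IC50) is given: proliferation of MCF7 cells quantified by sulforhodamine B staining, with optical density read at 560 nm.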

Turning to `COc1ccc(/C=C\c2cc(OC)c(OC)c(OC)c2)cc1O` [CA-4, reference compound], the IC50 in data set [1] (setting [8]) was 20.2 nM; in data set [1] (setting [9]) it was 21.2 ± 0.6 nM; in data set [1] (three single determinations, read-out: MCF-7/Taxol (raw data of table 3, IC50)), 22.1 nM and 21.3 nM; in data set [2] (setting [10]) it was 11.4 ± 0.2 nM; in data set [2] (setting [11]), 11.4 ± 0.2 nM; in data set [2] (setting [12]) it was 11.4 ± 0.2 nM. In addition, the IC50 in data set [2] (setting [13]) turned out to be 11.8 nM; in data set [3] (setting [14]), 0.3 ± 0.1 nM; in data set [3] (setting [15]), 0.326 ± 0.1 nM; in data set [4] (setting [16]) it was 7.1 ± 0.9 nM; in data set [4] (supplement raw data, read-out: IC50/Hepg2), 7.09 ± 0.9 nM; in data set [5] (setting [17]), 14.1 nM. Besides, the IC50 in data set [5] (setting [18]) was 15.2 ± 0.5 nM; in data set [5] (three single determinations, read-out: L02 (raw data of table 3, IC50)), 16.2 nM and 15.3 nM.

As to `CC(=O)O[C@H]1C(=O)[C@@]2(C)[C@H]([C@H](OC(=O)c3ccccc3)[C@]3(O)C[C@H](OC(=O)[C@H](O)[C@@H](NC(=O)c4ccccc4)c4ccccc4)C(C)=C1C3(C)C)[C@]1(OC(C)=O)CO[C@@H]1C[C@@H]2O` [Taxol, paclitaxel], in data set [1] ((IC50 MCF7/Tax)/(IC50 MCF7)), the Resistant fold is 13.7. Moreover, the IC50 in data set [1] (setting [8]) is 334 nM; in data set [1] (setting [9]), 336 ± 18 nM; in data set [1] (three single determinations, listed as TaxolL, read-out: MCF-7/Taxol (raw data of table 3, IC50)), 315 nM and 359 nM; in data set [2] (setting [11]), 24.6 ± 3.2 nM; in data set [2] (setting [13]), 20.6 nM; in data set [2] (three single determinations, listed as TaxolL, read-out: MCF-7 (raw data of table 3, IC50)), 28.3 nM and 24.9 nM. For the same molecule, the IC50 in data set [5] (setting [17]) is 32.1 nM; in data set [5] (setting [18]), 32.4 ± 1.9 nM; in data set [5] (three single determinations, listed as TaxolL, read-out: L02 (raw data of table 3, IC50)) it was 34.5 nM and 30.6 nM. Also, the Selectivity ratio in data set [5] ((IC50 human normal cells LO2)/(IC50 MCF7)) is listed as 1.3.

The melting point is the temperature of the solid-liquid transition. Molecule `COC(=O)c1cccc2[nH]cc(/C=C/C(=O)c3cc(OC)c(OC)c(OC)c3)c12` [Compound 6d, methyl(E)-3[3-oxo-3-(3,4,5-trimethoxyphenyl)prop-1-en-1-yl]-1H-indole-4-carboxylate] registered a melting point of 221.7 to 223.6 °C. For the same molecule, the IC50 in data set [6] is > 20000 nM. Also, in data set [2] (setting [10]), the IC50 was > 20000 nM. Besides, the IC50 in data set [7] (setting [19]) was > 20000 nM. Also, the IC50 in data set [3] (setting [14]) is > 20000 nM. Moreover, the IC50 in data set [4] (setting [16]) is > 20000 nM.

Regarding `COc1cc(C(=O)/C=C/c2coc3ccccc23)cc(OC)c1OC` [Compound 6j, (E)-3-(benzofuran-3-yl)-1-(3,4,5-trimethoxyphenyl)prop-2-en-1-one], the melting point fell in the range of 117.5 to 120.8 °C. Further, in data set [2] (setting [10]), the IC50 came out at 988 ± 6 nM. For the same molecule, the IC50 in data set [2] (setting [12]) is 988 nM. The IC50 in data set [7] (supplement raw data, read-out: IC50/MGC) came to 395 nM. For the same molecule, in data set [7] (setting [19]), the IC50 amounted to 395 ± 15 nM. The IC50 in data set [3] (setting [14]) came to 786 ± 346 nM. The IC50 in data set [3] (setting [15]) turned out to be 786 nM. Besides, in data set [4] (setting [16]), the IC50 is 4820 ± 102 nM.

For `COC(=O)c1ccc2[nH]cc(/C=C/C(=O)c3cc(OC)c(OC)c(OC)c3)c2c1` [Compound 6e, methyl(E)-3[3-oxo-3-(3,4,5-trimethoxyphenyl)prop-1-en-1-yl]-1H-indole-5-carboxylate], the melting point is 218.7 to 220.3 °C. Besides, the IC50 in data set [6] is > 20000 nM. Besides, the IC50 in data set [2] (setting [10]) is > 20000 nM. For the same molecule, in data set [7] (setting [19]), the IC50 is > 20000 nM. Moreover, in data set [3] (setting [14]), the IC50 was > 20000 nM. Further, in data set [4] (setting [16]), the IC50 was > 20000 nM.

`COc1cc(C(=O)/C=C/c2nc3ccccc3n2C)cc(OC)c1OC` [Compound 6r, (E)-3-[1-methyl-1H-benzo (d)imidazol-2-yl]-1-(3,4,5-trimethoxyphenyl)prop-2-en-1-one] gave a melting point of 123.5 to 125.2 °C. Further, the IC50 in data set [2] (setting [10]) is 5190 ± 465 nM. Besides, in data set [7] (setting [19]), the IC50 came out at 2030 ± 225 nM. Besides, the IC50 in data set [3] (setting [14]) was found to be 1280 ± 71 nM. In addition, the IC50 in data set [4] (setting [16]) is 4670 ± 295 nM.

Source of the values: publication PMC8652888, “Angiogenesis, Anti-Tumor, and Anti-Metastatic Activity of Novel α-Substituted Hetero-Aromatic Chalcone Hybrids as Inhibitors of Microtubule Polymerization” (Frontiers in Chemistry, 2021).
